Assay in all cases: DTP human tumour cell line panel, 48 h
The subject of experiment [1] is 786-0 renal.
The test system of experiment [2] is CAKI-1 renal.
For experiment [3], the system named is COLO 205 colon.
Experiment [4] has as its system KM12 colon.
Experiment [5] relates to MCF7 breast.
Experiment [6] relates to OVCAR-3 ovarian.
Experiment [7] deals with OVCAR-4 ovarian.
Experiment [8] deals with SK-MEL-28 melanoma.
Experiment [9] relates to SK-OV-3 ovarian.
In experiment [10] the test system is UO-31 renal.

Among the data in PubChem BioAssay (NCI) are TGI and GI50 values, retold here.

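Cultured in 96-well plates, cells were exposed to test compound for 48 hours across five concentrations. The concentration for 50% growth inhibition is given as GI50. The concentration for full growth arrest is given as TGI.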

As for `Oc1ccc2ccccc2c1/C=C/c1ccc2c(Br)cc(Br)c(O)c2n1`, the TGI in [1] was determined as 19.5 µM; in experiment [2] it was 26.7 µM; in [3], 21.9 µM; in experiment [4], 30.9 µM; in experiment [5], 14.5 µM; in [6], 10 µM. Also, the TGI in experiment [7] came out at 33.4 µM; in experiment [8], 31.8 µM; in experiment [9], 28.9 µM; in experiment [10], 17.1 µM.

For the molecule `COc1nc(C(=O)NNC(=O)c2nc(OC)c3ccccc3c2-c2ccccc2)c(-c2ccccc2)c2ccccc12`, the TGI in [1], in [2], in experiment [3], in experiment [4], in experiment [5] and in [6] was greater than 100 µM in each case. For the same molecule, the TGI in experiment [7], in experiment [8], in experiment [9] and in [10] was greater than 100 µM throughout.

As for `C=CCNC1=C2C[C@@H](C)C[C@@H](OC)[C@H](OC(=O)CCCCN)[C@H](C)/C=C(\C)[C@@H](OC(N)=O)[C@H](OC)/C=C\C=C(/C)C(=O)NC(=CC1=O)C2=O`, the TGI in experiment [1] is 26.5 µM; in [2] it was 33.2 µM; in [3], 16.6 µM; in experiment [4] it was 18 µM; in experiment [5], 12.4 µM; in experiment [6], 7.66 µM. Moreover, the TGI came out at 30.8 µM in experiment [7], 36.9 µM in [8], 19.9 µM in experiment [9] and 34.2 µM in experiment [10].

Take `CCOC(=O)C1(Cc2ccc3c(c2)CCC3)Cc2cc3c(cc2C1)CCC3`: the concentration for total growth inhibition (TGI) in experiment [1] is greater than 100 µM; in [2], greater than 100 µM; in [3], greater than 100 µM; in experiment [4], greater than 100 µM; in experiment [5], 40.4 µM; in [6] it was greater than 100 µM. In addition, the TGI was 87.9 µM in experiment [7], greater than 100 µM in experiment [8], 88.2 µM in [9] and greater than 100 µM in experiment [10].

In the case of `CCc1nc(N)nc(N)c1-c1ccc2nn(-c3ccccc3)[n+]([O-])c2c1`, the TGI in [1] was 18.9 µM; in experiment [2], 18.2 µM; in experiment [3], 22.3 µM; in [4], 41 µM; in experiment [5], 20.8 µM; in experiment [6], 28.3 µM. Besides, the TGI is 56.6 µM in experiment [7], 25.1 µM in [8], greater than 69.3 µM in experiment [9] and 35.2 µM in experiment [10].

Turning to `CCC1(CC)SCc2nc3ccccc3n21`, the TGI in experiment [1] is greater than 100 µM; in experiment [2], 95.7 µM; in experiment [3], 40.2 µM; in experiment [4], 61.5 µM; in experiment [5] it was 93.7 µM; in experiment [6], greater than 100 µM. Further, the concentration for total growth inhibition (TGI) in experiment [7], in experiment [8], in experiment [9] and in experiment [10] was greater than 100 µM in each case.

Regarding `CC(=O)NC1C(OCc2ccccc2)OC(CO)C(O)C1OC(C)C(=O)NC(C)C(=O)NC(CCC(=O)NCCCNc1c2ccccc2nc2cccc([N+](=O)[O-])c12)C(N)=O` (stereo not drawn), the TGI in experiment [1] was greater than 100 µM; in experiment [2], 7.87 µM; in experiment [3], 2.34 µM; in experiment [4], 23.5 µM; in [5], greater than 100 µM; in [6] it was 6.53 µM. Besides, the TGI is greater than 100 µM in experiment [7], 8.04 µM in experiment [8], 34.7 µM in experiment [9] and 8.3 µM in experiment [10].

With `COc1cc(-c2cc(=O)c3c(OC)c(OC)c(OC)c(OC)c3o2)c(OC)c(OC)c1OC`, the TGI was greater than 100 µM in experiment [1]; greater than 100 µM in experiment [2]; greater than 100 µM in experiment [3]; 90.3 µM in experiment [4]; greater than 100 µM in [5]; greater than 100 µM in experiment [7]. The values for the TGI in experiment [8], in experiment [9] and in [10] were greater than 100 µM, greater than 100 µM and 88.6 µM, respectively.

For the molecule `CCOC(=O)C1=C(C)N(C)C23OC4(C(=O)OC)CC2c2ccccc2C1N3C4=O` (stereo not drawn), the TGI in experiment [1], in experiment [2], in experiment [3], in experiment [4], in experiment [5] and in experiment [6] was greater than 100 µM each time. Also, the TGI in [7], in [8], in [9] and in [10] was greater than 100 µM each time.

Regarding `CC[N+](CC)(CCNCC(N)=O)CC(N)=O`, the TGI in experiment [1], in experiment [2], in [3], in [4], in experiment [5] and in experiment [6] was greater than 10 µM throughout. For the same molecule, the TGI in [7], in experiment [8], in experiment [9] and in [10] was greater than 10 µM throughout.

Consider `CC1=C(C#N)C(C#N)(C#N)C(NN(C)C)C1` (stereo not drawn), for which the TGI was 25.6 µM in experiment [1]; 7 µM in [2]; 16.1 µM in experiment [3]; 31.8 µM in experiment [4]; 77.3 µM in experiment [5]; greater than 100 µM in experiment [7]. Besides, the results for the TGI in [8], in [9] and in [10] were greater than 100 µM, greater than 100 µM and 29.3 µM, respectively.

`O=[N+]([O-])c1ccc(/C=N/n2c(CO)nc3ccccc32)o1`: the TGI in experiment [1] came to 17.9 µM; in experiment [2] it was 24.8 µM; in [3], 10.6 µM; in [4], 15.4 µM; in [5], 15.2 µM; in [6], 6.91 µM. Also, the TGI in experiment [7] is 21.8 µM; in [8], 12.6 µM; in experiment [9] it was 71.9 µM; in experiment [10], 22.9 µM.

Take `CC(C)(C)OC(=O)NCC(O)CNC(=O)OC(C)(C)C`: the TGI in experiment [1], in experiment [2], in experiment [3], in experiment [4], in [5] and in experiment [6] was greater than 100 µM throughout. Also, the TGI in experiment [7], in experiment [8], in experiment [9] and in [10] was greater than 100 µM throughout.

Turning to `COc1ccc(C(=O)Sc2c(-c3ccccc3)c(=O)n(-c3ccccc3)c(=S)n2-c2ccccc2)cc1`, the concentration for total growth inhibition (TGI) in experiment [1], in experiment [2], in [3], in [4], in [5] and in experiment [6] was greater than 100 µM throughout. The TGI in experiment [7], in experiment [8] and in experiment [9] was greater than 100 µM each time.

Consider `Cc1cccc(-c2nc3ccc([N+](=O)[O-])cc3c(=O)o2)c1`, for which the TGI in [1], in experiment [2], in [3], in experiment [4], in experiment [5] and in experiment [6] was greater than 100 µM each time. Further, the TGI in experiment [7], in [8], in experiment [9] and in experiment [10] was greater than 100 µM in each case.

As to `CCN(CC)c1c(N(CC)CC)c(=O)c1=O`, the concentration for total growth inhibition (TGI) in [1] was 16.2 µM; in experiment [2], 9.62 µM; in experiment [3] it was 8.24 µM; in [4] it was 48.4 µM; in experiment [5], 29.5 µM; in experiment [6], 25.1 µM. Moreover, the TGI in [7] is 46.3 µM; in experiment [8], 41.9 µM; in experiment [9], greater than 100 µM; in experiment [10], 12 µM.

Consider `C[C@@H]1C[C@H]2[C@@H]3CCC4=CC(=O)C=C[C@]4(C)[C@@]3(Cl)[C@@H](Cl)C[C@]2(C)[C@@]1(O)C(=O)COP(=O)(O)O`, for which the TGI in experiment [1], in experiment [2], in experiment [3], in [4], in experiment [5] and in experiment [6] was greater than 100 µM each time. Also, the TGI in experiment [7], in experiment [8], in experiment [9] and in experiment [10] was greater than 100 µM in each case.

Turning to `C[N+](C)([O-])CCC=C1c2ccccc2CCc2ccccc21`, the total growth inhibition concentration (TGI) in experiment [1] turned out to be 19.2 µM; in experiment [2], 79.4 µM; in experiment [3] it was 43.6 µM; in [4], 36.3 µM; in [5], 48.2 µM; in [6], 58.8 µM. Besides, the values for the total growth inhibition concentration (TGI) in experiment [7], in experiment [8] and in experiment [9] were 97 µM, 98.7 µM and greater than 100 µM, respectively.

Turning to `NC(Cc1cccc([N+](=O)[O-])c1)C(=O)O` (stereo not drawn), the TGI in [1], in experiment [2], in [3], in [4], in experiment [5] and in [6] was greater than 100 µM each time. Moreover, the TGI in [7], in experiment [8], in experiment [9] and in [10] was greater than 100 µM in each case.

For `O=C(CC(=O)Nc1cccc(C(=O)O)c1)Nc1cccc(C(=O)O)c1`, the TGI in experiment [1], in [2], in experiment [3], in experiment [4], in experiment [5] and in experiment [6] was greater than 100 µM each time. In addition, the TGI in experiment [7], in [8] and in experiment [10] was greater than 100 µM each time.

In the case of `COc1ccc2nc3ccc(OC)cc3c(S(=O)CCCl)c2c1` (stereo not drawn), the TGI in [1] is 3.34 µM; in experiment [2] it was 6.9 µM; in [3], 3.13 µM; in [4], 37.3 µM; in experiment [5], greater than 21.4 µM; in [6] it was 6.24 µM. The TGI in experiment [7] was found to be 16.4 µM; in [8], 12.4 µM; in [9], 40.2 µM.

For the molecule `COc1cc(/C=C2\CCC(C)C3C2=NN(C(C)=O)C3c2cc(OC)c(OC)c(OC)c2)cc(OC)c1OC` (stereo not drawn), the TGI in [1], in [2], in experiment [3], in experiment [4], in [5] and in [6] was greater than 100 µM throughout. The results for the TGI in experiment [7], in experiment [8] and in experiment [9] were greater than 100 µM, greater than 51.2 µM and greater than 100 µM, respectively.

For `O=NN(CCCl)C(=O)NC1CCSc2ccccc21` (stereo not drawn), the TGI in [2], in [3], in experiment [4], in [5], in experiment [6] and in experiment [7] was greater than 100 µM in each case. Besides, the results for the TGI in experiment [8], in [9] and in experiment [10] were greater than 94.1 µM, greater than 100 µM and greater than 100 µM, respectively.

For the molecule `NC(=O)C(N)Cc1ccc(O)cn1` (stereo not drawn), the TGI in experiment [1], in experiment [2], in experiment [3], in experiment [4], in [5] and in [6] was greater than 100 µM in each case. Moreover, the total growth inhibition concentration (TGI) in [7], in experiment [8] and in experiment [10] was greater than 100 µM in each case.

For `CC(=O)Nc1cc(C(=O)Nc2cc(C(=O)N3CC(CCl)c4c3cc(N)c3ccccc43)nn2C)nn1C` (stereo not drawn), the TGI in [1] is 0.332 µM; in experiment [2] it was 0.525 µM; in experiment [4], 7.83 µM; in experiment [5], greater than 66.5 µM; in [6] it was 2.61 µM; in experiment [7], 0.677 µM. Also, the concentration for total growth inhibition (TGI) in experiment [8] stood at 0.154 µM; in experiment [9] it was 5.96 µM; in experiment [10], 1.35 µM.

As to `Cc1ccc2c(n1)C(=O)c1[nH]c3ccccc3c1C2=O`, the GI50 was 2.37 µM in experiment [2]; 1.89 µM in [3]; 3.1 µM in experiment [4]; 0.586 µM in experiment [5]; 1.26 µM in experiment [6]; 1.13 µM in experiment [7]. Moreover, the figures for the GI50 in experiment [8], in experiment [9] and in experiment [10] were 3.87 µM, 4.95 µM and 1.63 µM, respectively. Moreover, the TGI was greater than 100 µM in experiment [2]; 4.14 µM in [3]; 19.6 µM in experiment [4]; 2.63 µM in [5]; 5.72 µM in experiment [6]; 2.35 µM in [7]. Also, the total growth inhibition concentration (TGI) was greater than 100 µM in experiment [8], greater than 100 µM in experiment [9] and 10.7 µM in experiment [10].

One may read the TGI as the concentration at which net growth stops. What is called GI50 is the concentration giving 50% growth inhibition.
